{"source": "patent US20050197398A1", "about": "“Therapeutic agent for hepatic disease” (AJINOMOTO CO., INC, priority 2002, published 2005)", "origin": "cited, not measured here", "key": {"[1]": {"test_system": "D-galactosamine-induced liver failure rat model"}, "[2]": {"test_system": "rat primary culture hepatocytes", "conditions": "D-galactosamine loading"}}}
{"compound": "C[C@H](N)C(=O)O", "note": "[alanine]", "values": [{"measurement": "liver failure", "setting": "[1]", "value": "improves liver failure"}, {"measurement": "level of ATP", "setting": "[1]; ATP becomes lower in liver failure", "value": "raises the level of ATP"}, {"measurement": "lactic dehydrogenase extracellular overflow", "setting": "[2]", "value": "suppress an increase of lactic dehydrogenase extracellular overflow"}]}
